Legend:
human neutrophils = assay: superoxide anion production in vitro, human neutrophils; format: cell-based; settings: for superoxide anion production: 10^−7M PMA
Method: Neutrophils (10^6) were suspended in PBS buffer of the following composition: NaCl 137 mM, KCl 2.7 mM, Na2HPO4, 8.1 mM, KH2PO4 1.47 mM, CaCl2 1.19 mM, MgCl2 0.54 mM, glucose 7.5 mM and cytochrome C 1.5 mM (Sigma Chemical Co. St. Louis, […].) incubated at 37 C. Each sample was read along with a reference sample containing 1440 units of superoxide dismutase (Sigma) in a spectrophotometer (Hitachi, U200 spectrophotometer). The rate of superoxide production in response to 10^−7M phorbol myristate acetate (PMA) or 10^−5 M N-formyl-methionyl-leucyl-phenylalanine (fMLP) was then inferred from the slope. (Derian et al., (1996), Biochemistry 35(4): 1265–9).
Neutrophils obtained either from carrageenin-soaked sponges implanted subcutaneously in rats, or from the blood of healthy human volunteers, were preincubated with various doses of SGP-T for 30 minutes, then stimulated with 10^−7M PMA and the rate of superoxide anion production determined. At doses less than 1 μM, SGP-T inhibited superoxide anion production by both rat and human neutrophils, although the rat neutrophils were approximately 10-fold less sensitive than human neutrophils to this inhibitor effect (FIG. 6). At higher doses of the peptide(>1 μM), an enhancement of superoxide anion production was evident with human neutrophils.
At 0.001 and 0.01 μM SGP-T, O2^− production was inhibited by 15 to 20% in human neutrophils, while 10-fold higher concentrations were required for such inhibition with rat neutrophils. Much higher concentrations of SGP-T (10 and 20 μM) stimulated O2^− production by human neutrophils. Each value is presented as the mean ±SEM, and the number of experiments was between 6 and 12.

[1] = tested on: ovalbumin-sensitized Sprague-Dawley rats; assay: anaphylactic hypotension (VPSP), ovalbumin-sensitized rats, Example 8; format: in vivo, rat; settings: intravenous, 100 μg/kg, 10 min prior to antigen
Method: Animals and Tissue Preparation: Male Sprague-Dawley rats were sensitized to egg albumin (ovalbumin; OA) with 50 ng of Pertussin bortella toxin as an adjuvant. Four to six weeks after sensitization, the rats were anesthetized with sodium pentobarbital. A tracheal tube was inserted and a cannula was inserted into the left ventricle for measuring ventricular peak systolic pressure (VPSP). This cannula was coupled to a blood pressure transducer. A cannula was also inserted into the jugular view for administration of peptide (100 μg/kg) and antigen (100 μg of OA). The peptides were injected intravenously 10 min prior to antigen injection and blood pressure was recorded for 30 min.
In a second study, the peptide feG (D-phenylalanine, D-glutamate, glycine) was administered orally by a stomach tube 1 hour prior to intravenous injection of the sensitizing antigen.
Data Analysis: The percent changes in VSPS induced by anaphyalctic reaction were calculated relative to baseline VPSP. Significance differences within groups were determined with one-way analysis of variance (ANOVA), and between groups with the Student t-test.

[2] = tested on: endotoxin-induced fever in rats; assay: endotoxin-induced fever, Example 12; format: in vivo, rat; settings: late phase (180–420 minutes); injected immediately before ip 150 μg/kg LPS
Method: Rats were operated on to remove salivary glands (or controls were sham-operated) one week before challenge with endotoxin. At the time of operation, a temperature sensitive radio transmitter was inserted in the peritoneal cavity. One week after operation, baseline temperatures were recorded by telemetry and SGP-T or saline was injected immediately before intra-peritoneal injection of 150 μg/kg LPS. Temperature was followed for 12 hours. SGP-T suppressed a late phase (180–420 minutes) of endotoxin-induced fever.

[3] = tested on: Sprague-Dawley rats sensitized with Nippostrongylys brasiliensis; assay: antigen-induced anaphylactic hypotension, Nippostrongylus brasiliensis-sensitized rats; format: in vivo, rat; settings: given 10 minutes prior to worm antigen (100 worm equivalents)
Method: The effect of SGP-T on antigen-induced anaphylactic hypotension was examined in Sprague-Dawley rats sensitized 5 weeks previously with the nematode parasite Nippostrongylys brasiliensis. Under pentobarbital anesthesia, worm antigen (100 worm equivalents) was injected and arterial blood pressure was followed for 1 hour.

[4] = tested on: neutrophil influx into carrageenin-soaked sponge in rats; assay: neutrophil migration into carrageenin-soaked sponge; format: in vivo, rat
Method: The subcutaneous implantation of a carrageenin-soaked sponge in rats is a model used to evaluate agents that modulate neutrophil chemotaxis, as carrageein is a potent chemotactic agent and the sponge serves as a collecting reservoir.
Under halothane anaesthesia the sponge was removed from its subcutaneous site and the fluid was squeezed from it into a test tube. Following centrifugation at 2,000 g for 10 min, the exudate was decanted and the remaining cells were suspended in 4 ml of 0.9% saline, and their number determined using a Coulter Counter. One ml of the remaining cell suspension was extracted for use in the superoxide assay.
Intravenous injections of SGP-T inhibited neutrophil influx into a carrageenin-soaked sponge in a dose-dependent manner (FIG. 4). When the ability of neutrophils obtained from the carrageenin-soaked sponges to generate superoxide anion was evaluated, those obtained from saline-treated rats were totally refractory to f MLP and phorbol myristate acetate (PMA).

[5] = tested on: jejunal segments from ovalbumin-sensitized rats; assay: antigen-induced jejunal segment contraction, URE/OA ratio, Example 7; parameters: species or system rat
Method: Animals and Tissue Preparation: Male Sprague-Dawley rats were sensitized to egg albumin (ovalbumin, OA) with 50 ng of Pertussis bordetella toxin as an adjuvant. Four to six weeks after sensitization, the rats were anaethetised with sodium pentobarbital and the jejunum was removed. Two cm sections of the jejunum were mounted in tissue baths under 0.75 g of isometric tension, and the tissues were allowed to equilibrate for 20 min prior to beginning the experiment.
10 μg of SGP-T or one of its analogues or fragments was added to a bath, while control tissues received the saline vehicle. Following a 10 min incubation, 100 ng of OA prepared in 0.9% saline was added. After the tissue had reached a maximal contractile response, the tissues were washed extensively to remove OA and peptide and, after the tissues had established baseline tension, 20 μg of urecholine (URE; a cholinergic-muscarinic receptor agonist) was added to determine the maximal contractile response of the tissue. The tissues were then removed from the bath, cleared of all underlying mucosa and the weight of the remaining muscle was determined.
Data Analysis: The tension (measured in grams) per gram tissue weight generated by each tissue in response to OA and URE was calculated. To normalize for differences in the ability of each tissue segment to contract in response to the muscle stimulants, the contractile response to […]. Thus, a measure of the antigen-induced contraction was expressed as the URE/OA ratio.
The data was analyzed using the one-way analysis of variance (ANOVA) and differences between groups was determined using the Student t-test for unpaired samples. The results are shown in FIGS. 7 and 8 and Tables 3 and 4.

## NH2-Thr-Asp-Ile-Phe-Glu-Gly-Gly-COOH (H-TDIFEGG-OH) [SGP-T, submandibular gland peptide T, TDIFEGG]
Human neutrophils; 10 and 20 μM
  O2− production: stimulated
Human neutrophils; doses less than 1 μM
  superoxide anion production: inhibited
Human neutrophils; higher doses (>1 μM)
  superoxide anion production: enhancement
[1]
  anaphylactic hypotension (VPSP): significantly inhibited
[2]
  endotoxin-induced fever: suppressed
[3]
  protection against anaphylactic hypotension: dose-dependently protected
[4]; intravenous injections
  neutrophil influx into a carrageenin-soaked sponge: inhibited
[4]; rat, in vivo
  inhibition of neutrophil migration: approximately 50%
[5]; 10 μg of peptide
  reduction of the anaphylactic reaction: more than 50%
[5]; Table 4, 10 μg peptide, 100 ng OA, 20 μg urecholine, saline 5.7 ± 1.0
  URE/OA: 13.9 ± 5.6

Reference: patent US7094760B2, “Peptides for treatment of inflammation and shock” (Salpep Biotechnology, Inc., priority 1996, dated 2006)
